molecular target: human TrkA receptor (Homo sapiens (Human), UniProt P04629); test: DiscoverX PathHunter TrkA functional assay; type: cell-based; details: U2OS cells expressing human TrkA-ProLink, Shc1-EA and p75NTR; compound 1 h, then NGF at ~80% of maximal response for 3 h; luminescence
Sequence (P04629 33-796): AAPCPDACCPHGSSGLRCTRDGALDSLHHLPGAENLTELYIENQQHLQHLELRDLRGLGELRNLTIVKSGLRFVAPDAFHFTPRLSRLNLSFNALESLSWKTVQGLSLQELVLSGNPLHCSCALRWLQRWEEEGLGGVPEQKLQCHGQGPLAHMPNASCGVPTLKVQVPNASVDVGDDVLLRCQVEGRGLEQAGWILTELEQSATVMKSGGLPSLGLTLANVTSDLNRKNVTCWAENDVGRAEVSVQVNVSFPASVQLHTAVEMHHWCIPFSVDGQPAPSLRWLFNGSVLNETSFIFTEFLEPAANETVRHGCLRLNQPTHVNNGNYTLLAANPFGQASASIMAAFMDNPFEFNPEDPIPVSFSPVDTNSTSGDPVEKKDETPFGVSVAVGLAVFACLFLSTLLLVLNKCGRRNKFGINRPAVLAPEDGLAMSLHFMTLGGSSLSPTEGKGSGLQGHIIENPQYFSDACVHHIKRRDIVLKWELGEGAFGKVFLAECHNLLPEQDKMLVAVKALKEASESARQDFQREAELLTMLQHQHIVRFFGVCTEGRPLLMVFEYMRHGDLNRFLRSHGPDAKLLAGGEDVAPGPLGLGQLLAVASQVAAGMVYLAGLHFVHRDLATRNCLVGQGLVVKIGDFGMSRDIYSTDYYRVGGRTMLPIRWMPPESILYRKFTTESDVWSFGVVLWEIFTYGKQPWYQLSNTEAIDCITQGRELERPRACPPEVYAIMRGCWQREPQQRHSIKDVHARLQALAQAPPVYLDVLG

IC50 [nM] | Compound
2.9 | Cc1cc(-n2nc(CO)cc2NC(=O)c2ccc(C(F)(F)F)c(-c3ccn(C)n3)c2)[nH]n1 [Compound 51]
1.9 | Cn1ccc(-c2cc(C(=O)Nc3cc(CN4C(=O)CNC4=O)nn3-c3ccc(F)cc3)c(F)cc2C(F)(F)F)n1 [Compound 112, N-(3-((2,5-dioxoimidazolidin-1-yl)methyl)-1-(4-fluorophenyl)-1H-pyrazol-5-yl)-2-fluoro-5-(1-methyl-1H-pyrazol-3-yl)-4-(trifluoromethyl)benzamide]
18 | CC(=O)n1cc(NC(=O)c2ccc(C(F)(F)F)c(-c3ccn(C)n3)c2)c(-c2ccccc2)n1 [Compound 33, N-(1-acetyl-3-phenyl-1H-pyrazol-4-yl)-3-(1-methyl-1H-pyrazol-3-yl)-4-(trifluoromethyl)benzamide]
38 | Cc1nc(-c2ccccc2)c(NC(=O)c2ccc(C(F)(F)F)c(-c3ccn(C)n3)c2)[nH]1 [Compound 13, N-(2-methyl-4-phenyl-1H-imidazol-5-yl)-3-(1-methyl-1H-pyrazol-3-yl)-4-(trifluoromethyl)benzamide]
44 | Cn1ccc(-c2cc(C(=O)Nc3c(-c4ccccc4)nc4n3CCC4)ccc2C(F)(F)F)n1 [Compound 79, 3-(1-methyl-1H-pyrazol-3-yl)-N-(2-phenyl-6,7-dihydro-5H-pyrrolo[1,2-a]imidazol-3-yl)-4-(trifluoromethyl)benzamide]
1.4 | Cn1ccc(-c2cc(C(=O)Nc3cc(Cc4cncnc4)nn3-c3ccc(F)cc3)ccc2C(F)(F)F)n1 [Compound 95, N-(1-(4-fluorophenyl)-3-(pyrimidin-5-ylmethyl)-1H-pyrazol-5-yl)-3-(1-methyl-1H-pyrazol-3-yl)-4-(trifluoromethyl)benzamide]
1.6 | Cc1cc(-n2nc(C(=O)NCc3cncnc3)cc2NC(=O)c2ccc(C(F)(F)F)c(-c3ccn(C)n3)c2)[nH]n1 [Compound 83, 5′-methyl-5-(3-(1-methyl-1H-pyrazol-3-yl)-4-(trifluoromethyl)benzamido)-N-(pyrimidin-5-ylmethyl)-2′H-[1,3′-bipyrazole]-3-carboxamide]
6.6 | O=C(Nc1cc(Cn2cccn2)nn1-c1ccc(F)cc1)c1cc(-c2ncccn2)c(C(F)(F)F)cc1F [Compound 87, N-(3-((1H-pyrazol-1-yl)methyl)-1-(4-fluorophenyl)-1H-pyrazol-5-yl)-2-fluoro-5-(pyrimidin-2-yl)-4-(trifluoromethyl)benzamide]
2.4 | NCc1cccc(-c2cc(NC(=O)c3cc(-c4ncccn4)c(C(F)(F)F)cc3F)n(-c3ccc(F)cc3)n2)c1 [Compound 103, N-(3-(3-(aminomethyl)phenyl)-1-(4-fluorophenyl)-1H-pyrazol-5-yl)-2-fluoro-5-(pyrimidin-2-yl)-4-(trifluoromethyl)benzamide]
22 | O=C(Nc1cc(-c2ncccn2)nn1-c1ccc(F)cc1)c1cc(-c2cc[nH]n2)c(C(F)(F)F)cc1F [Compound 64, 2-fluoro-N-[1-(4-fluorophenyl)-3-pyrimidin-2-yl-1H-pyrazol-5-yl]-5-(1H-pyrazol-3-yl)-4-(trifluoromethyl)benzamide]
16 | CC(O)c1cc(NC(=O)c2cc(-c3ncccn3)c(C(F)(F)F)cc2F)n(-c2ccc(F)cc2)n1 (single isomer, unassigned) [Compound 99, (S or R)-2-fluoro-N-(1-(4-fluorophenyl)-3-(1-hydroxyethyl)-1H-pyrazol-5-yl)-5-(pyrimidin-2-yl)-4-(trifluoromethyl)benzamide]
4.8 | O=C(Nc1cc(Cc2n[nH]c(=O)s2)nn1-c1ccc(F)cc1)c1cc(-c2ncccn2)c(C(F)(F)F)cc1F [Compound 89, 2-fluoro-N-(1-(4-fluorophenyl)-3-((5-oxo-4,5-dihydro-1,3,4-thiadiazol-2-yl)methyl)-1H-pyrazol-5-yl)-5-(pyrimidin-2-yl)-4-(trifluoromethyl)benzamide]
3.4 | O=C(Nc1cc(-c2ccc(CCO)cc2)nn1-c1ccc(F)cc1)c1cc(-c2ncccn2)c(C(F)(F)F)cc1F [Compound 101, 2-fluoro-N-(1-(4-fluorophenyl)-3-(4-(2-hydroxyethyl)phenyl)-1H pyrazol-5-yl)-5-(pyrimidin-2-yl)-4-(trifluoromethyl)benzamide]
240 | Cc1cc(-n2nc(CNCCO)cc2NC(=O)c2ccc(C(F)(F)F)c(-c3ccn(C)n3)c2)[nH]n1 [Compound 68, N-(3-{[(2-hydroxyethyl)amino]methyl}-5′-methyl-2′H-1,3′-bipyrazol-5-yl)-3-(1-methyl-1H-pyrazol-3-yl)-4-(trifluoromethyl)benzamide]
78 | Cc1cc(-n2nc(-c3ccc(=O)[nH]n3)cc2NC(=O)c2ccc(C(F)(F)F)c(-c3ncccn3)c2)n[nH]1 [Compound 57, N-[5′-methyl-3-(6-oxo-1,6-dihydropyridazin-3-yl)-1′H-1,3′-bipyrazol-5-yl]-3-pyrimidin-2-yl-4-(trifluoromethyl)benzamide]
490 | Cc1cc(NC(=O)c2cc(-c3cc[nH]n3)ccc2Cl)n(-c2cc(C)[nH]n2)n1 [Compound 54, 2-chloro-N-(3,5′-dimethyl-1′H-1,3′-bipyrazol-5-yl)-5-(1H-pyrazol-3-yl)benzamide]

IC50 [nM] | Compound
860 | Cc1cccnc1-c1cc(C(=O)Nc2cc(-c3ccncc3)nn2-c2ccc(F)cc2)ccc1C(F)(F)F [Compound 31, N-[1-(4-fluorophenyl)-3-pyridin-4-yl-1H-pyrazol-5-yl]-3-(3-methylpyridin-2-yl)-4-(trifluoromethyl)benzamide]
3.1 | Cc1coc(-c2cc(C(=O)Nc3cc(-c4cn[nH]c4)nn3-c3cc(C)[nH]n3)ccc2C(F)(F)F)n1 [Compound 61, 3-(4-methyl-1,3-oxazol-2-yl)-N-(5-methyl-1H,1″H-3,1′:3′,4″-terpyrazol-5′-yl)-4-(trifluoromethyl)benzamide]
5.5 | Cc1cccc(-c2cc(C(=O)Nc3cc(-c4ccncc4)nn3-c3ccc(F)cc3)ccc2C(F)(F)F)n1 [Compound 30, N-[1-(4-fluorophenyl)-3-pyridin-4-yl-1H-pyrazol-5-yl]-3-(6-methylpyridin-2-yl)-4-(trifluoromethyl)benzamide]
0.39 | Cc1cc(-n2nc(C(=O)NCc3cccnc3)cc2NC(=O)c2cc(-c3ccn(C)n3)c(C(F)(F)F)cc2F)[nH]n1 [Compound 76, 5-({[2-fluoro-5-(1-methyl-1H-pyrazol-3-yl)-4-(trifluoromethyl)phenyl]carbonyl}amino)-5′-methyl-N-(pyridin-3-ylmethyl)-2′H-1,3′-bipyrazole-3-carboxamide]
1 | CC(O)c1cnc(-c2cc(NC(=O)c3cc(-c4ccn(C)n4)c(C(F)(F)F)cc3F)n(-c3ccc(F)cc3)n2)nc1 (single isomer, unassigned) [Compound 107, (S or R)-2-fluoro-N-(1-(4-fluorophenyl)-3-(5-(1-hydroxyethyl)pyrimidin-2-yl)-1H-pyrazol-5-yl)-5-(1-methyl-1H-pyrazol-3-yl)-4-(trifluoromethyl)benzamide]
3.4 | Cn1ccc(-c2cc(C(=O)Nc3cc(Cc4nnn(C)n4)nn3-c3ccccc3)c(Cl)cc2C(F)(F)F)n1 [Compound 58, 2-chloro-5-(1-methyl-1H-pyrazol-3-yl)-N-{3-[(2-methyl-2H-tetrazol-5-yl)methyl]-1-phenyl-1H-pyrazol-5-yl}-4-(trifluoromethyl)benzamide]
0.82 | Cc1cc(NC(=O)c2cc(-c3ccn(C)n3)c(C(F)(F)F)cc2Cl)n(-c2cc(C)[nH]n2)n1 [Compound 48, 2-chloro-N-(3,5′-dimethyl-1′H-1,3′-bipyrazol-5-yl)-5-(1-methyl-1H-pyrazol-3-yl)-4-(trifluoromethyl)benzamide]
12 | O=C(Nc1cc(CCO)nn1-c1ccc(F)cc1)c1cc(-c2ncccn2)c(C(F)(F)F)cc1F [Compound 93, 2-fluoro-N-(1-(4-fluorophenyl)-3-(2-hydroxyethyl)-1H-pyrazol-5-yl)-5-(pyrimidin-2-yl)-4-(trifluoromethyl)benzamide]
10 | Cc1cc(-n2nc(C(=O)NC3CN(C)C3)cc2NC(=O)c2ccc(C(F)(F)F)c(-c3ccn(C)n3)c2)[nH]n1 [Compound 27, 5′-methyl-N-(1-methylazetidin-3-yl)-5-({[3-(1-methyl-1H-pyrazol-3-yl)-4-(trifluoromethyl)phenyl]carbonyl}amino)-2′H-1,3′-bipyrazole-3-carboxamide]
0.37 | Cn1ccc(-c2cc(C(=O)Nc3cc(-c4ccncc4)nn3-c3ccccc3)c(Cl)cc2C(F)(F)F)n1 [Compound 36, 2-chloro-5-(1-methyl-1H-pyrazol-3-yl)-N-(1-phenyl-3-pyridin-4-yl-1H-pyrazol-5-yl)-4-(trifluoromethyl)benzamide]
0.76 | NC(=O)c1ccc(-c2cc(NC(=O)c3cc(-c4ncccn4)c(C(F)(F)F)cc3F)n(-c3ccc(F)cc3)n2)cc1 [Compound 81, N-[3-(4-carbamoylphenyl)-1-(4-fluorophenyl)-1H-pyrazol-5-yl]-2-fluoro-5-pyrimidin-2-yl-4-(trifluoromethyl)benzamide]
0.98 | Cn1ccc(-c2cc(C(=O)Nc3cc(Cc4ccc(=O)[nH]n4)nn3-c3ccc(F)cc3)c(F)cc2C(F)(F)F)n1 [Compound 105, 2-fluoro-N-(1-(4-fluorophenyl)-3-((6-oxo-1,6-dihydropyridazin-3-yl)methyl)-1H-pyrazol-5-yl)-5-(1-methyl-1H-pyrazol-3-yl)-4-(trifluoromethyl)benzamide]
8.4 | Cc1nc(-c2ccccc2)c(NC(=O)c2cc(-c3ccn(C)n3)c(C(F)(F)F)cc2F)n1C [Compound 63, N-(1,2-dimethyl-4-phenyl-1H-imidazol-5-yl)-2-fluoro-5-(1-methyl-1H-pyrazol-3-yl)-4-(trifluoromethyl)benzamide]
240 | Cc1cc(-n2nc(CN3CCCC3)cc2NC(=O)c2ccc(C(F)(F)F)c(-c3ccn(C)n3)c2)[nH]n1 [Compound 69, 3-(1-methyl-1H-pyrazol-3-yl)-N-[5′-methyl-3-(pyrrolidin-1-ylmethyl)-2′H-1,3′-bipyrazol-5-yl]-4-(trifluoromethyl)benzamide]
1.7 | Cc1csc(-c2cc(C(=O)Nc3cc(-c4ccccn4)nn3-c3cc(C)[nH]n3)ccc2C(F)(F)F)n1 [Compound 6, N-(5′-methyl-3-pyridin-2-yl-1′H-1,3′-bipyrazol-5-yl)-3-(4-methyl-1,3-thiazol-2-yl)-4-(trifluoromethyl)benzamide]
